Laboratory results taken from US11186564B2, “Dual NAV1.2/5HT2a inhibitors for treating CNS disorders” (Sunovion Pharmaceuticals Inc., priority 2016, dated 2021).
Like-named read-outs stand apart in the source and are kept apart here.

How the values were obtained:
[1] = target: human sodium channel NaV1.2 (Homo sapiens, UniProt Q99250); assay: NaV1.2 inhibition, automated patch-clamp (Q-Patch HTX), slow inactivated state (state C); assay type: cell-based; conditions: hNaV1.2 CHO cells, slow inactivated state; for inhibition at 10 µM: 10 μM compound, read-out: NaV1.2 (% inh), 10 μM; for IC50: read-out: NaV1.2 IC50; for inhibition at 1 µM: 1 μM compound, read-out: NaV1.2 (% inh), 1 μM
Procedure, shortened: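 CHO K-1 cells stably expressing human NaV1.2, whole-cell automated patch clamp, holding −100 mV; slow-inactivated state (state C) read at a 5 ms step to 0 mV after 10 s at −50 mV and 15 ms at −90 mV. Percent inhibition vs vehicle; IC50 by nonlinear least-squares fit.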

[2] = target: T1, recombinant human serotonin receptor 5-HT2A (Homo sapiens, UniProt P28223); assay: 5-HT2A antagonist Ca2+ assay in CHO-K1 cells (method A aequorin luminescence / method B FLIPR fluorescence); assay type: cell-based; conditions: antagonist mode vs EC80 of reference agonist, method A or B
T1 construct: expressed in transfected cells; method B: loaded with Ca2+ dye
Procedure, shortened: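 Method A: CHO-K1 cells co-expressing human 5-HT2A and mitochondrial apoaequorin were given reference agonist at EC80 15 min after compound, with luminescence read. Method B: dye-loaded 5-HT2A CHO-K1 cells were pretreated with compound, then given serotonin at EC80, with FLIPR fluorescence read. IC50s came from nonlinear fits of percent inhibition.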

T1 sequence (P28223 whole entry): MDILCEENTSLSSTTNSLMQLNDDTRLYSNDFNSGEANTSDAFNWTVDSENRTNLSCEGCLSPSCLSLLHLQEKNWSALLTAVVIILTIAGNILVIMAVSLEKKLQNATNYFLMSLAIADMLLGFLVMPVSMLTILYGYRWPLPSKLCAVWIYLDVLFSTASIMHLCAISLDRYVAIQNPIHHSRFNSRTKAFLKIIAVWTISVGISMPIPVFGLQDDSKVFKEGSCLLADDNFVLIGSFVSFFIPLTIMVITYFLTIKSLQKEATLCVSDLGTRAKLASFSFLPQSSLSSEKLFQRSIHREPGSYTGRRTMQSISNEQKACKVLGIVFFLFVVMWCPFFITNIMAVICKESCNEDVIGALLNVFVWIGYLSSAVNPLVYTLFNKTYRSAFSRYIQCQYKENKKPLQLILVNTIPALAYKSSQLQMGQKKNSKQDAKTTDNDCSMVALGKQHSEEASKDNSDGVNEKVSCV
human sodium channel NaV1.2, sequence (Q99250 whole entry): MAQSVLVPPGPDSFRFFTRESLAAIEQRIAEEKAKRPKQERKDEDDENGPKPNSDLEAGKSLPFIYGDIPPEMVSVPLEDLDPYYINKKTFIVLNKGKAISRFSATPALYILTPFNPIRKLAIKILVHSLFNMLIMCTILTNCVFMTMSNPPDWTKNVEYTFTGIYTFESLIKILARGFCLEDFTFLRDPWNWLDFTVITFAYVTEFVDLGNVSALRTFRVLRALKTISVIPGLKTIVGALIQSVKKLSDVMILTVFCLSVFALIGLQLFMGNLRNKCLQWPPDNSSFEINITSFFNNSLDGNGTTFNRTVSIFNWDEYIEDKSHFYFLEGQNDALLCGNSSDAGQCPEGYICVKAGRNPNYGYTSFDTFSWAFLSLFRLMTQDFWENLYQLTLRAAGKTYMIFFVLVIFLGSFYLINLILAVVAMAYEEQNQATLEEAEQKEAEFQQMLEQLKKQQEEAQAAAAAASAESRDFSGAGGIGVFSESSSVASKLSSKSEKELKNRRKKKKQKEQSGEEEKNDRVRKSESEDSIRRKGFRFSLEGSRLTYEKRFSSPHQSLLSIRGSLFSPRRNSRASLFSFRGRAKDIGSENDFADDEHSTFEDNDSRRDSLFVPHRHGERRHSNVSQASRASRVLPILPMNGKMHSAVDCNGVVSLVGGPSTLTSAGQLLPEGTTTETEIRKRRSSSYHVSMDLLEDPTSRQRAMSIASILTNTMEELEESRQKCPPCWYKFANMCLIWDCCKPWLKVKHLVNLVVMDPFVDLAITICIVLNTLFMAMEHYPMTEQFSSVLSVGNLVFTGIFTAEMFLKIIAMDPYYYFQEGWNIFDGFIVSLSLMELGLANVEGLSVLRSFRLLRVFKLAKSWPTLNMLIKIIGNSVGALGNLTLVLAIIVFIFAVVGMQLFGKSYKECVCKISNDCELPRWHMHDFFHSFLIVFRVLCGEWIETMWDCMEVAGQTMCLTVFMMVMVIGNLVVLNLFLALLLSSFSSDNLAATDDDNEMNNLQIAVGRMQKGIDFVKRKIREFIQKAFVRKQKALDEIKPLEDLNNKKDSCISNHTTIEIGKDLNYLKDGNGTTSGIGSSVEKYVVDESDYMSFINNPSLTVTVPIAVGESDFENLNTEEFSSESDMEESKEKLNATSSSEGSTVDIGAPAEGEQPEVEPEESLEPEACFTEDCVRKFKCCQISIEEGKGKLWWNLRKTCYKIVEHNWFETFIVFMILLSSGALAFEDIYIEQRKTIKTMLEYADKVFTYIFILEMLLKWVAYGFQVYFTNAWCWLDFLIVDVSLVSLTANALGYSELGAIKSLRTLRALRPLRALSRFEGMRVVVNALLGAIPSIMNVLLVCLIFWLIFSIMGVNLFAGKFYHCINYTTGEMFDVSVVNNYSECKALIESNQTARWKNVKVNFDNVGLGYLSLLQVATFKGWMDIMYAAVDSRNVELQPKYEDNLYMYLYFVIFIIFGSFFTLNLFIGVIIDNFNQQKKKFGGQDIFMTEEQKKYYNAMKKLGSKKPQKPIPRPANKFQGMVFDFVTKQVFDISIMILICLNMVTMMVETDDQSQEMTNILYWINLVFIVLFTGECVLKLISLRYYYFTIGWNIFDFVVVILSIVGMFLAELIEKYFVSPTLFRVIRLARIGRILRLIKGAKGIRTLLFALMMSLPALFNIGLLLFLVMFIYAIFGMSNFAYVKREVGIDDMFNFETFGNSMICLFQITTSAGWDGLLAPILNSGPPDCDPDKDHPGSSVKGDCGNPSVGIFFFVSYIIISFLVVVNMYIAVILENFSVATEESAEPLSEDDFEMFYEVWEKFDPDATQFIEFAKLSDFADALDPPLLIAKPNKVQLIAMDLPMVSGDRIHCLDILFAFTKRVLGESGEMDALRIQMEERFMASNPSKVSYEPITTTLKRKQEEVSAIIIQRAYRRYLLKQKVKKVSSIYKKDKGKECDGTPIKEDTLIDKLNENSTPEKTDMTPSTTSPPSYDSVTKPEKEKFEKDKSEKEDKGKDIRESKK

Row | inhibition at 10 µM [1] | IC50 ([2]; read-out: 5HT2A IC50) | inhibition at 1 µM [1] | Structure (SMILES) | IC50 [1] | IC50 ([2]; 5HT2A IC50, μM)
1 | 91% | 0.002 µM |  | Fc1ccc(OCCCN2CCN(c3nsc4ccccc34)CC2)cc1 [Example 73, 3-(4-(3-(4-fluorophenoxy)propyl)piperazin-1-yl)benzo[d]isothiazole] |  | 
2 |  | 0.87 µM |  | C1=C(c2ccccc2)COC12CN(CC1CCc3ccccc31)C2 (stereo not drawn) [Example 358, 2-((2,3-dihydro-1H-inden-1-yl)methyl)-7-phenyl-5-oxa-2-azaspiro[3.4]oct-7-ene] | > 10000 nM | 
3 |  |  |  | OC(COC1CCCCC1)CN1[C@@H]2CC[C@H]1CN(c1ccccc1)C2 (stereo partly drawn) [Example 286, 1-(cyclohexyloxy)-3-((1R,5S)-3-phenyl-3,8-diazabicyclo[3.2.1]octan-8-yl)propan-2-ol] | 1250 nM | 0.01 µM
4 | 48% | > 5.3 µM |  | OC(COC1CCCCC1)CN1C[C@H]2C[C@@H]1CN(Cc1ccccc1)C2 (stereo partly drawn) [Example 318, 1-((1S,5R)-3-benzyl-3,6-diazabicyclo[3.2.1]octan-6-yl)-3-(cyclohexyloxy)propan-2-ol] |  | 
5 |  | 0.1 µM | 25% | Fc1ccc(N2CCC3(CCN(CC4Cc5ccccc5C4)C3)C2)cc1 (stereo not drawn) [Example 340, 2-((2,3-dihydro-1H-inden-2-yl)methyl)-7-(4-fluorophenyl)-2,7-diazaspiro[4.4]nonane] |  | 
6 |  | 0.15 µM | 34% | O=C(CN1CCC(Oc2ccccc2)CC1)c1ccccc1 [Example 216, 2-(4-phenoxypiperidin-1-yl)-1-phenylethan-1-one] |  | 
7 | 83% | 0.1 µM |  | Cc1cccc(N2CCN(CC3COCc4ccccc43)CC2)c1C (stereo not drawn) [Example 57, 1-(2,3-dimethylphenyl)-4-(isochroman-4-ylmethyl)piperazine] |  | 
8 |  | 5.28 µM | 5% | c1ccc(N2C[C@@H]3CC[C@H]2CN3CCC2COCc3ccccc32)cc1 (stereo partly drawn) [Example 315, (1S,4S)-2-(2-(isochroman-4-yl)ethyl)-5-phenyl-2,5-diazabicyclo[2.2.2]octane] |  | 
9 | 62% | 0.174 µM |  | COc1ccc(OC2CCN(CCN3CCc4ccccc4C3=O)CC2)cc1 [Example 202, 2-(2-(4-(4-methoxyphenoxy)piperidin-1-yl)ethyl)-3,4-dihydroisoquinolin-1(2H)-one] |  | 
10 | 88% | 0.25 µM |  | COc1cccc(CCCN2CCC(Oc3ccccc3)CC2)c1 [Example 225, 1-(3-(3-methoxyphenyl)propyl)-4-phenoxypiperidine] |  | 
11 |  | 1.86 µM | 18% | c1ccc2c(c1)CCC1(CCN(CC3Cc4ccncc4C3)CC1)O2 (stereo not drawn) [Example 412, 1′-((6,7-dihydro-5H-cyclopenta[c]pyridin-6-yl)methyl)spiro[chromane-2,4′-piperidine]] |  | 
12 |  | 0.31 µM | 3% | OC1(CN2CC[C@H](Oc3ccc(F)cc3)C2)COCc2ccccc21 (stereo partly drawn) [Example 10, 4-(((S)-3-(4-fluorophenoxy)pyrrolidin-1-yl)methyl)isochroman-4-ol] |  | 
13 |  | 0.11 µM | 56% | CN1CCN(CC2CCc3ccccc32)CC1COc1ccc(F)cc1 (stereo not drawn) [Example 270, 4-((2,3-dihydro-1H-inden-1-yl)methyl)-2-((4-fluorophenoxy)methyl)-1-methylpiperazine] |  | 
14 |  | 0.45 µM | -2% | Fc1ccc(N2CCC3(CCN(CC4CCc5cccnc54)C3)C2)cc1 (stereo not drawn) [Example 337, 2-((6,7-dihydro-5H-cyclopenta[b]pyridin-7-yl)methyl)-7-(4-fluorophenyl)-2,7-diazaspiro[4.4]nonane] |  | 
15 |  | 0.23 µM | 44% | Fc1ccc(OC2CCCN(CC3CCc4ccccc43)CC2)cc1 (stereo not drawn) [Example 271, 1-((2,3-dihydro-1H-inden-1-yl)methyl)-4-(4-fluorophenoxy)azepane] |  | 
16 |  | 0.01 µM |  | c1ccc(OC2CCN(CC3CCc4ccccc43)CC2)cc1 (stereo not drawn) [Example 106, 1-((2,3-dihydro-1H-inden-1-yl)methyl)-4-phenoxypiperidine] | > 10000 nM | 

Row | Structure (SMILES) | inhibition at 10 µM [1] | IC50 ([2]; read-out: 5HT2A IC50) | inhibition at 1 µM [1] | IC50 [1] | IC50 ([2]; 5HT2A IC50, μM)
17 | c1ccc(OC2COC3(C2)CN(CC2CCc4ccccc42)C3)cc1 (single isomer, unassigned) [Compound 362, 2-((2,3-dihydro-1H-inden-1-yl)methyl)-7-phenoxy-5-oxa-2-azaspiro[3.4]octane] |  | 0.5 µM |  | 6370 nM | 
18 | c1ccc(OCCN2CCN(c3nsc4ccccc34)CC2)cc1 [Example 70, 3-(4-(2-phenoxyethyl)piperazin-1-yl)benzo[d]isothiazole] |  | 0.004 µM |  | 1700 nM | 
19 | OC(COC1CCCCC1)CN1C[C@@H]2C[C@H](C1)N(c1ccccc1)C2 (stereo partly drawn) [Example 331, 1-(cyclohexyloxy)-3-((1S,5R)-6-phenyl-3,6-diazabicyclo[3.2.1]octan-3-yl)propan-2-ol] |  | 1.64 µM |  | 310 nM | 
20 | O=C1c2ccccc2CCCN1CCN1CCC(Oc2ccc(F)cc2)CC1 [Example 208, 2-(2-(4-(4-fluorophenoxy)piperidin-1-yl)ethyl)-2,3,4,5-tetrahydro-1H-benzo[c]azepin-1-one] |  | 0.01 µM |  | 1210 nM | 
21 | Cc1cccc(N2CCN(CC(O)COC3COc4cccnc43)CC2)c1C (stereo not drawn) [Example 82, 1-((2,3-dihydrofuro[3,2-b]pyridin-3-yl)oxy)-3-(4-(2,3-dimethylphenyl)piperazin-1-yl)propan-2-ol] |  | 0.04 µM |  | 1350 nM | 
22 | c1ccc([C@@H]2COC3(CCN(C[C@H]4CCc5ccccc54)CC3)C2)cc1 (single isomer, unassigned) [Compound 379] |  | 0.04 µM |  | 290 nM | 
23 | Fc1ccc(COC2CCN(CC3CCOc4ccccc43)CC2)cc1 (stereo not drawn) [Example 249, 1-(chroman-4-ylmethyl)-4-((4-fluorobenzyl)oxy)piperidine] |  | 0.21 µM |  | 630 nM | 
24 | O[C@@H](CO[C@H]1CCCc2ccccc21)CN1CCN(Cc2ccccc2)CC1 [Example 85, (R)-1-(4-benzylpiperazin-1-yl)-3-(((S)-1,2,3,4-tetrahydronaphthalen-1-yl)oxy)propan-2-ol] |  | > 11.9 µM | 24% |  | 
25 | Fc1ccc(O[C@H]2CCCN(CC3CCc4ccccc43)C2)cc1 (stereo partly drawn) [Example 254, (3S)-1-((2,3-dihydro-1H-inden-1-yl)methyl)-3-(4-fluorophenoxy)piperidine] |  | 0.52 µM |  | 770 nM | 
26 | Fc1ccc(OC2CCCN(CC3COc4ccccc43)CC2)cc1 (stereo not drawn) [Example 272, 1-((2,3-dihydrobenzofuran-3-yl)methyl)-4-(4-fluorophenoxy)azepane] |  | 0.01 µM |  | 830 nM | 
27 | c1ccc(N2C[C@@H]3C[C@H]2CN3CC2CCc3ccccc32)cc1 (stereo partly drawn) [Example 303, (1S,4S)-2-((2,3-dihydro-1H-inden-1-yl)methyl)-5-phenyl-2,5-diazabicyclo[2.2.1]heptane] |  | 2.6 µM |  | 1820 nM | 
28 | Fc1ccc(OC2CCN(CC3CCOc4ccccc43)CC2)cc1 (stereo not drawn) [Example 165, 1-(chroman-4-ylmethyl)-4-(4-fluorophenoxy)piperidine] |  | 0.02 µM |  | 910 nM | 
29 | COc1cccc(OC2CCN(CCCN3CCc4ccccc4C3=O)CC2)c1 [Example 221, 2-(3-(4-(3-methoxyphenoxy)piperidin-1-yl)propyl)-3,4-dihydroisoquinolin-1(2H)-one] |  | 0.98 µM |  | 1000 nM | 
30 | Cc1ccccc1OCC(O)CN1CCC(c2nc3ccccc3s2)CC1 (stereo not drawn) [Example 91, 1-(4-(benzo[d]thiazol-2-yl)piperidin-1-yl)-3-(o-tolyloxy)propan-2-ol] |  | 0.02 µM |  | 170 nM | 
